Read-outs that look alike come from different tables or passages of the source.
Key:
[1] = system: TGF-β; experiment: AlphaScreen SureFire p-SMAD3 (Ser423/425) assay, TGF-β-stimulated cells; type: cell-based; details: Mus musculus
How it was run: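 The p-SMAD-3 (Ser423/425) SureFire assay measured phosphorylation of endogenous SMAD-3 in cell lysates. Cells were plated overnight in collagen-coated plates, exposed to three-fold serially diluted compounds for about 10 minutes, then stimulated with TGFβ. Lysates (5 μL) received acceptor bead mix for 2 hours, then donor beads for 1½ hours before AlphaScreen reading.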

[2] = system: GDF8; experiment: AlphaScreen SureFire p-SMAD3 (Ser423/425) assay, GDF8-stimulated cells; type: cell-based; details: Mus musculus
How it was run: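 A SureFire AlphaScreen assay measured phosphorylation of endogenous SMAD-3 at Ser423/425 in cell lysates. Cells were treated with three-fold serially diluted compounds in DMSO for about 10 minutes, then stimulated with GDF8. After medium removal, cells were lysed in 1× Lysis Buffer (about 25 μL) with gentle shaking for 5-10 minutes.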

[3] = p-SMAD3 (Ser423/425) AlphaScreen in cell lysate, MPC-11, TGF-β stimulation, read-out: TGF-β: inhibition of TGF-β signaling, TGF-β pSMAD (MPC-11)
[4] = MPC-11, p-SMAD3 (Ser423/425) AlphaScreen in cell lysate, MPC11, GDF8 stimulation, read-out: GDF8: inhibition of GDF8 signaling, GDF pSMAD (MPC11)
[5] = MPC-11, read-out: TGF-β: inhibition of TGF-β signaling, TGF-β pSMAD (MPC-11), p-SMAD3 (Ser423/425) AlphaScreen in cell lysate, TGF-β stimulation
[6] = MPC-11, read-out: GDF8: inhibition of GDF8 signaling, GDF pSMAD (MPC11), p-SMAD3 (Ser423/425) AlphaScreen in cell lysate, GDF8 stimulation

Row | SMILES | IC50 [1, 3] [µM] | IC50 [2, 4] [µM] | IC50 [1, 5] [µM] | IC50 [2, 6] [µM]
1 | Cc1cc(-c2nc3n(c2-c2ccc4nccnc4c2)CCC3)c(F)cc1Cl [Compound 254, 6-(2-(4-chloro-2-fluoro-5-methylpheny)-6,7-dihydro-5H-pyrrolo[1,2-a]imidazol-3-yl)quinoxaline] | > 1 | > 1 | – | –
2 | Cc1cc(-c2nc3n(c2-c2ccc4ncccc4c2)CCC3)c(F)cc1Cl [Compound 255] | > 1 | > 1 | – | –
3 | COc1c(C)cc(-c2nc3n(c2-c2ccc4ncsc4c2)CCC3)cc1C [Compound 257, 6-(2-(4-methoxy-3,5-dimethylphenyl)-6,7-dihydro-5H-pyrrolo[1,2-a]imidazol-3-yl)benzo[d]thiazole] | > 1 | > 1 | – | –
4 | COc1c(C)cc(-c2nc3n(c2-c2ccc4nccnc4c2)CCC3)cc1C [Compound 258, 6-(2-(4-methoxy-3,5-dimethylphenyl)-6,7-dihydro-5H-pyrrolo[1,2-a]imidaol-3-yl)quinoxaline] | > 1 | > 1 | – | –
5 | COc1c(C)cc(-c2nc3n(c2-c2ccc4ncccc4c2)CCC3)cc1C [Compound 259, 6-(2-(4-methoxy-3,5-dimethylphenyl)-6,7-dihydro-5H-pyrrolo[1,2-a]imidazol-3-yl)quinoline] | > 1 | > 1 | – | –
6 | Cc1c(-c2nc3n(c2-c2ccc4ncsc4c2)CCC3)ccc(F)c1F [Compound 261, 6-(2-(3,4-difluoro-2-methylphenyl)-6,7-dihydro-5H-pyrrolo[1,2-a]imidazol-3-yl)benzo[d]thiazole] | > 1 | 0.1 to 1 | – | –
7 | Cc1c(-c2nc3n(c2-c2ccc4nccnc4c2)CCC3)ccc(F)c1F [Compound 262, 6-(2-(3,4-difluoro-2-methylphenyl)-6,7-dihydro-5H-pyrrolo[1,2-a]imidazol-3-yl)quinoxaline] | > 1 | 0.1 to 1 | – | –
8 | Cc1c(-c2nc3n(c2-c2ccc4ncccc4c2)CCC3)ccc(F)c1F [Compound 263, 6-(2-(3,4-difluoro-2-methylphenyl)-6,7-dihydro-5H-pyrrolo[1,2-a]imidzaol-3-yl)quinoline] | > 1 | 0.1 to 1 | – | –
9 | Fc1ccc(-c2nc3n(c2-c2ccc4[nH]ncc4c2)CCC3)cc1Cl [Compound 264, 5-(2-(3-chloro-4-fluoropheny)-6,7-dihydro-5H-pyrrolo[1,2-a]imidazol-3-yl)-1H-indazole] | 0.1 to 1 | < 0.05 | – | –
10 | Fc1ccc(-c2nc3n(c2-c2ccc4ncsc4c2)CCC3)cc1Cl [Compound 265, 6-(2-(3-chloro-4-fluoropheny)-6,7-dihydro-5H-pyrrolo[1,2-a]imidazol-3-yl)benzo[d]thiazole] | 0.1 to 1 | 0.05 to 0.1 | – | –
11 | Fc1ccc(-c2nc3n(c2-c2ccc4nccnc4c2)CCC3)cc1Cl [Compound 266, 6-(2-(3-chloro-4-fluoropheny)-6,7-dihydro-5H-pyrrolo[1,2-a]imidazol-3-yl)quinoxaline] | 0.1 to 1 | 0.05 to 0.1 | – | –
12 | Fc1ccc(-c2nc3n(c2-c2ccc4ncccc4c2)CCC3)cc1Cl [Compound 267, 6-(2-(3-chloro-4-fluoropheny)-6,7-dihydro-5H-pyrrolo[1,2-a]imidazol-3-yl)quinoline] | 0.1 to 1 | 0.1 to 1 | – | –
13 | Cc1cc(-c2nc3n(c2-c2ccc4[nH]ncc4c2)CCC3)c(F)cc1F [Compound 268, 5-(2-(2,4-difluoro-5-methylphenyl)-6,7-dihydro-5H-pyrrolo[1,2-a]imidazol-3-yl)-1H-indazole] | 0.05 to 0.1 | < 0.05 | – | –
14 | Cc1cc(-c2nc3n(c2-c2ccc4ncsc4c2)CCC3)c(F)cc1F [Compound 269, 6-(2-(2,4-difluoro-5-methylphenyl)-6,7-dihydro-5H-pyrrolo[1,2-a]imidaozl-3-yl)benzo[d]thiazole] | 0.05 to 0.1 | < 0.05 | – | –
15 | Cc1cc(-c2nc3n(c2-c2ccc4nccnc4c2)CCC3)c(F)cc1F [Compound 270, 6-(2-(2,4-difluoro-5-methylphenyl)-6,7-dihydro-5H-pyrrolo[1,2-a]imidazol-3-yl)quinoxaline] | 0.05 to 0.1 | < 0.05 | – | –
16 | Cc1cc(-c2nc3n(c2-c2ccc4ncccc4c2)CCC3)c(F)cc1F [Compound 271, 6-(2-(2,4-difluoro-5-methylphenyl)-6,7-dihydro-5H-pyrrolo[1,2-a]imidazol-3-yl)quinoline] | 0.1 to 1 | < 0.05 | – | –
17 | Cc1cc(-c2nc3n(c2-c2ccc4[nH]ncc4c2)CCC3)cc(Cl)c1F [Compound 272, 5-(2-(3-chloro-4-fluoro-5-methylphenyl)-6,7-dihydro-5H-pyrrolo[1,2-a]imidazol-3-yl)-1H-indazole] | > 1 | > 1 | – | –

Row | SMILES | IC50 [1, 3] [µM] | IC50 [2, 4] [µM] | IC50 [1, 5] [µM] | IC50 [2, 6] [µM]
18 | Cc1cc(-c2nc3n(c2-c2ccc4ncsc4c2)CCC3)cc(Cl)c1F [Compound 273, 6-(2-(3-chloro-4-fluoro-5-methylpheny)-6,7-dihydro-5H-pyrrolo[1,2-a]imidazol-3-yl)benzo[d]thiazole] | > 1 | > 1 | – | –
19 | Cc1cc(-c2nc3n(c2-c2ccc4nccnc4c2)CCC3)cc(Cl)c1F [Compound 274, 6-(2-(3-chloro-4-fluoro-5-methylpheny)-6,7-dihydro-5H-pyrrolo[1,2-a]imidazol-3-yl)quinoxaline] | > 1 | > 1 | – | –
20 | Cc1cc(-c2nc3n(c2-c2ccc4ncccc4c2)CCC3)cc(Cl)c1F [Compound 275, 6-(2-(3-chloro-4-fluoro-5-methylpheny)-6,7-dihydro-5H-pyrrolo[1,2-a]imidazol-3-yl)quinoline] | > 1 | > 1 | – | –
21 | Cc1cc(-c2nc3n(c2-c2ccc4[nH]ncc4c2)CCC3)cc(C)c1F [Compound 276, 5-(2-(4-fluoro-3,5-dimethylphenyl)-6,7-dihydro-5H-pyrrolo[1,2-a]imidazol-3-yl)-1H-indazole] | > 1 | 0.1 to 1 | – | –
22 | Cc1cc(-c2nc3n(c2-c2ccc4ncsc4c2)CCC3)cc(C)c1F [Compound 277, 6-(2-(4-fluoro-3,5-dimethylphenyl)-6,7-dihydro-5H-pyrrolo[1,2-a]imidazol-3-yl)benzo[d]thiazole] | > 1 | > 1 | – | –
23 | Cc1cc(-c2nc3n(c2-c2ccc4nccnc4c2)CCC3)cc(C)c1F [Compound 278, 6-(2-(4-fluoro-3,5-dimethylphenyl)-6,7-dihydro-5H-pyrrolo[1,2-a]imidazol-3-yl)quinoxaline] | > 1 | > 1 | – | –
24 | Cc1cc(-c2nc3n(c2-c2ccc4ncccc4c2)CCC3)cc(C)c1F [Compound 279] | > 1 | > 1 | – | –
25 | Cc1c(F)ccc(-c2nc3n(c2-c2ccc4[nH]ncc4c2)CCC3)c1F [Compound 280, 5-(2-(2,4-difluoro-3-methylphenyl)-6,7-dihydro-5H-pyrrolo[1,2-a]imidazol-3-yl)-1H-indazole] | 0.1 to 1 | 0.05 to 0.1 | – | –
26 | Cc1c(F)ccc(-c2nc3n(c2-c2ccc4ncsc4c2)CCC3)c1F [Compound 281, 6-(2-(2,4-difluoro-3-methylphenyl)-6,7-dihydro-5H-pyrrolo[1,2-a]imidazol-3-yl)benzo[d]thiazol] | 0.1 to 1 | 0.05 to 0.1 | – | –
27 | Cc1c(F)ccc(-c2nc3n(c2-c2ccc4nccnc4c2)CCC3)c1F [Compound 282, 6-(2-(2,4-difluoro-3-methylphenyl)-6,7-dihydro-5H-pyrrolo[1,2-a]imidazol-3-yl)quinoxaline] | 0.1 to 1 | 0.1 to 1 | – | –
28 | Cc1c(F)ccc(-c2nc3n(c2-c2ccc4ncccc4c2)CCC3)c1F [Compound 283, 6-(2-(2,4-difluoro-3-methylphenyl)-6,7-dihydro-5H-pyrrolo[1,2-a]imidazol-3-yl)quinoline] | > 1 | 0.1 to 1 | – | –
29 | Cc1cc(F)c(-c2nc3n(c2-c2ccc4[nH]ncc4c2)CCC3)cc1F [Compound 284, 5-(2-(2,5-difluoro-4-methylphenyl)-6,7-dihydro-5H-pyrrolo[1,2-a]imidazol-3-yl)-1H-indazole] | – | – | > 1 | > 1
30 | Cc1cc(F)c(-c2nc3n(c2-c2ccc4ncsc4c2)CCC3)cc1F [Compound 285, 6-(2-(2,5-difluoro-4-methylphenyl)-6,7-dihydro-5H-pyrrolo[1,2-a]imidazol-3-yl)benzo[d]thiazole] | > 1 | > 1 | – | –
31 | Cc1cc(F)c(-c2nc3n(c2-c2ccc4nccnc4c2)CCC3)cc1F [Compound 286, 6-(2-(2,5-difluoro-4-methylphenyl)-6,7-dihydro-5H-pyrrolo[1,2-a]imidazol-3-yl)quinoxaline] | – | – | > 1 | > 1
32 | Cc1cc(F)c(-c2nc3n(c2-c2ccc4ncccc4c2)CCC3)cc1F [Compound 287, 6-(2-(2,5-difluoro-4-methylphenyl)-6,7-dihydro-5H-pyrrolo[1,2-a]imidazol-3-yl)quinoline] | – | – | > 1 | > 1
33 | Fc1cc(Cl)c(-c2nc3n(c2-c2ccc4[nH]ncc4c2)CCC3)cc1F [Compound 288, 5-(2-(2-chloro-4,5-difluorophenyl)-6,7-dihydro-5H-pyrrolo[1,2-a]imidazol-3-yl)-1H-indazole] | – | – | > 1 | 0.1 to 1
34 | Fc1cc(Cl)c(-c2nc3n(c2-c2ccc4ncsc4c2)CCC3)cc1F [Compound 289, 6-(2-(2-chloro-4,5-difluorophenyl)-6,7-dihydro-5H-pyrrolo[1,2-a]imidazol-3-yl)benzo[d]thiazole] | 0.1 to 1 | < 0.05 | – | –

Reference: patent US10696693B2, “Fused imidazole derivatives as TGF-beta inhibitors” (Rigel Pharmaceuticals, Inc., priority 2014, dated 2020)
